Experimental data reported in patent US20200405868A1, “GEL-FORMING POLYPEPTIDES” (priority 2018, published 2020).
“Also recorded” adds a separate entry of the source. Where a SMILES comes first, the peptide text is derived from it. Where no end group is shown, it is not given here. [ ]: non-standard residue; d: D form. The star is where a group is joined. d2Nal = N[C@H](Cc1ccc2ccccc2c1)C(=O)O; Palmitoyl = CCCCCCCCCCCCCCCC(=O)*

Experiment: Compound gel-forming ability in water (visual inspection, tube tapping assay, tilted tube assay);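 note: peptides mixed with de-ionized water at about 22-25 °C, judged after 20 min by eye plus tube tapping (10 taps, moves counted) and 90° tilt mobility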
Format: physicochemical
Settings: for Physical property at 11% w/w: 11% w/w in aqueous solution, room temperature; for gel formation at 11% w/w: 11% w/w in water; for gel formation in aqueous solution, 6% / propensity to form gels, chimeric or mutated polypeptides, 6% / propensity to form gels, wild-type counterparts, 6%: 6% w/w; for gel formation in aqueous solution, 11% / propensity to form gels, chimeric or mutated polypeptides, 11% / propensity to form gels, wild-type counterparts, 11%: 11% w/w; for gel formation at 6% w/w: 6% w/w in water; for gel formation at 20% w/w: 20% w/w in water; for gel formation in aqueous solution, 20% / propensity to form gels, wild-type counterparts, 20%: 20% w/w

Molecule	gel formation at 11% w/w	gel formation in aqueous solution, 6% (Table 3)	gel formation in aqueous solution, 11% (Table 3)	Physical property at 11% w/w (Table 1)	other results
Pal-KVQKLNFVPTNVGSKAY-NH2 (Palmitoyl-KVQKLNFVPTNVGSKAY-NH2; SMILES CCCCCCCCCCCCCCCC(=O)N[C@@H](CCCCN)C(=O)N[C@H](C(=O)N[C@@H](CCC(N)=O)C(=O)N[C@@H](CCCCN)C(=O)N[C@@H](CC(C)C)C(=O)N[C@@H](CC(N)=O)C(=O)N[C@@H](Cc1ccccc1)C(=O)N[C@H](C(=O)N1CCC[C@H]1C(=O)N[C@H](C(=O)N[C@@H](CC(N)=O)C(=O)N[C@H](C(=O)NCC(=O)N[C@@H](CO)C(=O)N[C@@H](CCCCN)C(=O)N[C@@H](C)C(=O)N[C@@H](Cc1ccc(O)cc1)C(N)=O)C(C)C)[C@@H](C)O)C(C)C)C(C)C) [SEQ ID NO:139]					Physical property at 11% w/w (Table 2): SS (SS for semisolid gel)
Pal-HSDAAVDTSSEITTKDLKEKKEVVEEAEN-NH2 [SEQ ID NO:267]	semisolid gel	SS (SS for semisolid gel)	SS (SS for semisolid gel)		propensity to form gels, chimeric or mutated polypeptides, 6% (Table 5): SS (An ability to form semisolid gel is represented by an SS); propensity to form gels, chimeric or mutated polypeptides, 11% (Table 5): SS (An ability to form semisolid gel is represented by an SS)
Pal-HSYKRPPGFS-(DβNal)-Ile-NH2 [SEQ ID NO:261]	semisolid gel		SS (SS for semisolid gel)		gel formation at 6% w/w: liquid gel; propensity to form gels, chimeric or mutated polypeptides, 3% (Table 5, 3% w/w): AS/IS; propensity to form gels, chimeric or mutated polypeptides, 11% (Table 5): SS (An ability to form semisolid gel is represented by an SS)
SYSMEHFRWGKPVGKKRRPVKVYP-OH [SEQ ID NO:33, reference compound]	does not form gel		AS/IS (AS/IS for aqueous solution or insoluble)	AS/IS	gel formation at 20% w/w: does not form gel; gel formation in aqueous solution, 20% (Table 3): AS/IS (AS/IS for aqueous solution or insoluble); propensity to form gels, wild-type counterparts, 11% (Table 5): AS/IS; propensity to form gels, wild-type counterparts, 20% (Table 5): AS/IS
FKFEFKFE-miniPEG-RPKPQQFFGLM-NH2 [SEQ ID NO:284]		AS/IS (AS/IS for aqueous solution or insoluble)	AS/IS (AS/IS for aqueous solution or insoluble)		
GRKKRRQRRRPQ [SEQ ID NO:36, reference compound]	cannot form gel		AS/IS (AS/IS for aqueous solution or insoluble)	AS/IS	gel formation at 20% w/w: cannot form gel; gel formation in aqueous solution, 20% (Table 3): AS/IS (AS/IS for aqueous solution or insoluble); propensity to form gels, wild-type counterparts, 11% (Table 5): AS/IS; propensity to form gels, wild-type counterparts, 20% (Table 5): AS/IS; gel formation at the selected concentration (selected concentration (i.e., at 30%, 20%, 11%, or 6% w/w)): only form aqueous solution or are insoluble
Ace-NFVPTNVGPFAF-NH2 (Ac-NFVPTNVGPFAF-NH2) [SEQ ID NO:134]					Physical property at 11% w/w (Table 2): AS/IS (AS/IS for aqueous solution or insoluble)
Pal-SSPHSY-miniPEG-PFRSVQ-NH2 [SEQ ID NO:242]	semisolid gel		SS (SS for semisolid gel)		gel formation at 6% w/w: liquid gel; propensity to form gels, chimeric or mutated polypeptides, 11% (Table 5): SS (An ability to form semisolid gel is represented by an SS)
HSDAVFTDNYTRLRKQMAVKKYLNSILN [SEQ ID NO:67, reference compound]	does not form gel		AS/IS (AS/IS for aqueous solution or insoluble)		gel formation at 20% w/w: does not form gel; gel formation in aqueous solution, 20% (Table 3): AS/IS (AS/IS for aqueous solution or insoluble); propensity to form gels, wild-type counterparts, 11% (Table 5): AS/IS; propensity to form gels, wild-type counterparts, 20% (Table 5): AS/IS
Pal-SSPHSY-miniPEG-ICVVQDWGHHRCT-NH2 [SEQ ID NO:244]	semisolid gel	AS/IS (AS/IS for aqueous solution or insoluble)	SS (SS for semisolid gel)		propensity to form gels, chimeric or mutated polypeptides, 6% (Table 5): AS/IS; propensity to form gels, chimeric or mutated polypeptides, 11% (Table 5): SS (An ability to form semisolid gel is represented by an SS)
Pal-VQKLVDPSSPHSY-NH2 (Palmitoyl-VQKLVDPSSPHSY-NH2; SMILES CCCCCCCCCCCCCCCC(=O)N[C@H](C(=O)N[C@@H](CCC(N)=O)C(=O)N[C@@H](CCCCN)C(=O)N[C@@H](CC(C)C)C(=O)N[C@H](C(=O)N[C@@H](CC(=O)O)C(=O)N1CCC[C@H]1C(=O)N[C@@H](CO)C(=O)N[C@@H](CO)C(=O)N1CCC[C@H]1C(=O)N[C@@H](Cc1c[nH]cn1)C(=O)N[C@@H](CO)C(=O)N[C@@H](Cc1ccc(O)cc1)C(N)=O)C(C)C)C(C)C) [SEQ ID NO:112]					Physical property at 11% w/w (Table 2): SS (SS for semisolid gel)
Pal-KVQKLSAPVDPSSPHSY-miniPEG-Sar-RVYVHPA-NH2 [SEQ ID NO:216]	liquid gel				gel formation at 20% w/w: liquid gel
Pal-HSYEEMQRR-NH2 [SEQ ID NO:250]	semisolid gel	AS/IS (AS/IS for aqueous solution or insoluble)	SS (SS for semisolid gel)		propensity to form gels, chimeric or mutated polypeptides, 6% (Table 5): AS/IS; propensity to form gels, chimeric or mutated polypeptides, 11% (Table 5): SS (An ability to form semisolid gel is represented by an SS)
Pal-SSPHSY-miniPEG-KCNTATCATQRLANFLVHSSNNFGPILPPTNVGSNTY-NH2 ({Palmitoyl-Ser-Ser-Pro-H2N-Ser-Tyr-miniPEG}-KCNTATCATQRLANFLVHSSNNFGPILPPTNVGSNTY-NH2; ends and bridges not checked) [SEQ ID NO:218]	semisolid gel	SS (SS for semisolid gel)	SS (SS for semisolid gel)		gel formation at 6% w/w: semisolid gel; propensity to form gels, chimeric or mutated polypeptides, 6% (Table 5): SS (An ability to form semisolid gel is represented by an SS); propensity to form gels, chimeric or mutated polypeptides, 11% (Table 5): SS (An ability to form semisolid gel is represented by an SS)
Pal-KVQKLNFVPTNVGSKAF-NH2 [SEQ ID NO:135]					Physical property at 11% w/w (Table 2): AS/IS (AS/IS for aqueous solution or insoluble)
(G1p)HWSY-(D-2Nal)-LRPG-NH2 [SEQ ID NO:15, reference compound]	liquid gel	AS/IS (AS/IS for aqueous solution or insoluble)			propensity to form gels, wild-type counterparts, 6% (Table 5): AS/IS
Pal-SSPHSY-miniPEG-RC-(D-Ala)-H-(D-Phe)-RWC-NH2. [SEQ ID NO:227]			AS/IS (AS/IS for aqueous solution or insoluble)		gel formation at 30% w/w (30% w/w in water): form gel; gel formation in aqueous solution, 30% (Table 3, 30% w/w): SS (SS for semisolid gel)
miniPEG-K(PAL)GCRFGTCTVQKLAHQIYQFTDKDVAPRSKISP(D-Gln)GY-NH2 [SEQ ID NO:48]	semisolid gel			SS (SS for semisolid gel)	
enfuvirtide				AS/IS	
QQRFEWEFEQQ-miniPEG-RPKPQQFFGLM-NH2 [SEQ ID NO:285]		AS/IS (AS/IS for aqueous solution or insoluble)	AS/IS (AS/IS for aqueous solution or insoluble)		
Pal-SSPHSY-miniPEG-FLPLIGRVLSGIL-NH2 ({Palmitoyl-Ser-Ser-Pro-H2N-Ser-Tyr-miniPEG}-FLPLIGRVLSGIL-NH2) [SEQ ID NO:243]	semisolid gel	AS/IS (AS/IS for aqueous solution or insoluble)	SS (SS for semisolid gel)		
YRSRKYSSWY-NH2 [SEQ ID NO:46, reference compound]			AS/IS (AS/IS for aqueous solution or insoluble)	AS/IS	propensity to form gels, wild-type counterparts, 11% (Table 5): AS/IS
RPKPQQFFGLM-NH2 [SEQ ID NO:23, reference compound]	semisolid gel		AS/IS (AS/IS for aqueous solution or insoluble)	AS/IS	propensity to form gels, wild-type counterparts, 11% (Table 5): AS/IS
NC(=O)CC[C@@H]1NC(=O)[C@H](Cc2ccccc2)NC(=O)[C@H](Cc2ccc(O)cc2)NC(=O)[C@@H](N)CSSC[C@@H](C(=O)N2CCC[C@H]2C(=O)N[C@@H](CCCN=C(N)N)C(=O)NCC(N)=O)NC(=O)[C@H](CC(N)=O)NC1=O [SEQ ID NO:17, reference compound]	does not form gel		AS/IS (AS/IS for aqueous solution or insoluble)	AS/IS	propensity to form gels, wild-type counterparts, 11% (Table 5): AS/IS
C[C@H](NC(=O)[C@@H](Cc1ccc2ccccc2c1)NC(=O)[C@@H](C)N)C(=O)N[C@@H](Cc1c[nH]c2ccccc12)C(=O)N[C@H](Cc1ccccc1)C(=O)N[C@@H](CCCCN)C(N)=O [SEQ ID NO:8, (D-Ala)-(D-(β-naphthyl))-AAW-(D-Phe)-Lys-NH2, reference compound] (H-[dA][d2Nal]AW[dF]K-NH2)	form self-assembling gels; also recorded: semisolid gel	SS (SS for semisolid gel)	SS (SS for semisolid gel)	SS (SS for semisolid gel)	gel formation at 3% w/w (3% w/w in water): liquid gel; gel formation at 6% w/w: semisolid gel; propensity to form gels, wild-type counterparts, 6% (Table 5): SS (An ability to form semisolid gel is represented by an SS); propensity to form gels, wild-type counterparts, 11% (Table 5): SS (An ability to form semisolid gel is represented by an SS)
Pal-KVQKLSAPVDPSSPHSY-miniPEG-HAEGTFTSDVSSYLEGQAAKEFIAWLVKGR-NH2 [SEQ ID NO:220]			SS (SS for semisolid gel)		propensity to form gels, chimeric or mutated polypeptides, 11% (Table 5): SS (An ability to form semisolid gel is represented by an SS)
